The source of these data is US10913738B2 (BRISTOL-MYERS SQUIBB COMPANY, priority 2017, dated 2021).

Some results are limits rather than exact numbers.

One experiment relates to MLKL phosphorylation in HT29-L23 human colorectal adenocarcinoma cells. Briefly: MLKL Phosphorylation High-Content Assay. The format is cell-based. The settings on record: Homo sapiens, x marks IC50 class 20-200 nM, read-out: pMLKL cell activity 20-200 nM. As for the experimental part:
MLKL Phosphorylation High-Content Assay
Following six hours incubation at 37° C. […] MLKL phosporylation was detected using anti-MLKL (phospho S358) antibody (Abcam #ab187091) (1:1000 dilution in Blocking Buffer [PBS supplemented with 0.1% BSA]) with overnight incubation at 4° C. […] Following another three cycles of washes in PBS, the microplates were sealed, and cellular images were acquired in the Cellomics ArrayScan VTI high-content imager equipped with an X1 camera. […] The image sets were analyzed using the Compartmental Analysis Bioapplication software (Cellomics). The level of MLKL phosphorylation was quantified as MEAN CircRingAvgIntenRatio. […] The data were fitted using the 4-parameter logistic equation to calculate the IC50 and Ymax values.
For `Nc1nc2cc(-c3cnc(Cl)c(C(=O)NCc4cc(C(F)(F)F)ccc4F)c3)ccn2n1` [Example 170, 5-{2-amino-[1,2,4]triazolo[1,5-a]pyridin-7-y1}-2-chloro-N-{[2-fluoro-5-(trifluoromethyl)phenyl]methyl}pyridine-3-carboxamide], the IC50 is 20 to 200 nM.
Regarding `COc1ncc(-c2ccn3nc(N)nc3c2)cc1C(=O)NC(C)CCc1ccccc1` (stereo not shown) [Example 101, 5-{2-amino-[1,2,4]triazolo[1,5-a]pyridin-7-yl}-2-methoxy-N-(4-phenylbutan-2-yl)pyridine-3-carboxamide], the IC50 was in the range of 20 to 200 nM.
For the molecule `Cc1ncc(-c2ccn3nc(N)nc3c2)cc1C(=O)Nc1cn(Cc2ccccc2)cn1` [Example 319, 5-(2-amino-[1,2,4]triazolo[1,5-a]pyridin-7-yl)-N-(1-benzyl-1H-imidazol-4-yl)-2-methylnicotinamide], the IC50 was in the range of 20 to 200 nM.
As to `Cc1nc(C)c(-c2ccn3nc(N)nc3c2)cc1C(=O)NCc1cc(F)cc(F)c1O[C@H]1CCOC1` [Example 295, (S)-5-(2-amino-[1,2,4]triazolo[1,5-a]pyridin-7-yl)-N-(3,5-difluoro-2-((tetrahydrofuran-3-yl)oxy)benzyl)-2,6-dimethylnicotinamide], the IC50 fell in the range of 20 to 200 nM.

Staying with this experiment, now noted: Homo sapiens, x marks IC50 class <20 nM, read-out: pMLKL cell activity <20 nM.
For `Nc1nc2cc(-c3cnc(Cl)c(C(=O)Nc4cnn(Cc5ccccc5)c4)c3)ccn2n1` [Example 83, 5-{2-Amino-[1,2,4]triazolo[1,5-a]pyridin-7-yl}-N-(1-benzyl-1H-pyrazol-4-yl)-2-chloropyridine-3-carboxamide], the IC50 is below 20 nM.

Still in this experiment, the particulars now being: Homo sapiens, x marks IC50 class >200 nM, read-out: pMLKL cell activity >200 nM.
With `COc1ncc(-c2ccn3nc(N)nc3c2)cc1C(=O)NCCC(O)c1ccc(F)cc1` (single isomer, unassigned) [Example 71-2, 5-(2-Amino-[1,2,4]triazolo[1,5-a]pyridin-7-yl)-N-(3-(4-fluorophenyl)-3-hydroxypropyl)-2-methoxynicotinamide], the IC50 was above 200 nM.
`COc1ncc(-c2ccn3nc(N)nc3c2)cc1C(=O)NC[C@H]1C[C@@H]1c1ccc(F)cc1` [Example 112, 5-{2-amino-[1,2,4]triazolo[1,5-a]pyridin-7-yl}-N-{[(1S,2S)-2-(4-fluorophenyl)cyclopropyl]methyl}-2-methoxypyridine-3-carboxamide]: the IC50 is above 200 nM.

Staying with this experiment, now noted: x marks IC50 class <20 nM, read-out: pMLKL cell activity <20 nM.
With `COc1nc(C)c(-c2ccn3nc(N)nc3c2)cc1C(=O)NCc1cccc(F)c1C(=O)N1CCC(F)(F)C1` [Example 382, 5-(2-amino-[1,2,4]triazolo[1,5-a]pyridin-7-yl)-N-(2-(3,3-difluoropyrrolidine-1-carbonyl)-3-fluorobenzyl)-2-methoxy-6-methlnicotinamide], the IC50 was below 20 nM.

The next experiment has as its target T1, His-GST-TVMV-hRIPK1(1-324) (Homo sapiens, UniProt Q13546).
T1 construct: The coding region of human RIPK1(1-324) flanked by NdeI site at 5′ end; made in house; host or cells: Spodoptera frugiperda (Sf9) insect cells, baculovirus
T1 sequence (Q13546 1-324): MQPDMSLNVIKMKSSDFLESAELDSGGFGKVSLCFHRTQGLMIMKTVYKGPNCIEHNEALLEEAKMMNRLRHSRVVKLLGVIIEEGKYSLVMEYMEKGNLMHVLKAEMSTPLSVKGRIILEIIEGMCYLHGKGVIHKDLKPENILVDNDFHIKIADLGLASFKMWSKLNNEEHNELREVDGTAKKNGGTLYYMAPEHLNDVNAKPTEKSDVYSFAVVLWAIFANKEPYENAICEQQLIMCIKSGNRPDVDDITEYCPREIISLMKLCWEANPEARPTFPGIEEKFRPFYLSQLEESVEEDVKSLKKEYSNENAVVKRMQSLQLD
Put plainly: RIPK1 HTRF Binding Assay. The settings on record: x marks IC50 class 20-200 nM; read-out: RIPK1 HTRF binding 20-200 nM. The method, then:
The plate was incubated at rt for 1 h.
Cloning and Baculovirus Expression of RIPK1 Construct
Baculovirus was generated for the construct using the Bac-to-Bac baculovirus expression system (Invitrogen) according to the manufacturer's protocol. Briefly, recombinant bacmid was isolated from transformed DH10Bac E. coli competent cells (Invitrogen) and used to transfect Spodoptera frugiperda (Sf9) insect cells (Invitrogen). Baculovirus was harvested 72 hours post transfection and a virus stock was prepared by infecting fresh Sf9 cells at a 1/1000 (v/v) ratio for 66 hours.
The production was carried out either at a 10 L scale in a 22 L cellbag (GE Healthcare Bioscience, Pittsburgh, Pa.) or at a 20 L scale in a 50 L cellbag using WAVE-Bioreactor System 20/50 (GE Healthcare Bioscience). The infected cells were harvested by centrifugation at 2000 rpm for 20 min at 4° C. in a SORVALL® RC12BP centrifuge. The cell pellets was stored at −70° C. before protein was purified.
RIPK1 containing cell paste was resuspended in 50 mM Tris pH 7.5, 150 mM NaCl, 10 mM imidazole, 5% glycerol, 5 mM MgSO4, 1 mM TCEP, 25 U/ml Benzonase, and Complete Protease Inhibitor tablets (1/50 ml, Roche Diagnostics, Indianapolis, Ind.). […] The suspension was clarified by centrifugation at 136,000×g for 40 min, at 4° C. The lysate was decanted from the pellet and passed through a 5 ml NiNTA Superflow cartridge (Qiagen, Valencia, Calif.) using an AKTA Pure (GE Healthcare). Column was eluted with 10 CV linear gradient into 50 mM Tris 7.5, 150 mM NaCl, 500 mM imidazole, 5% glycerol, 1 mM TCEP. Peak fractions were pooled and loaded directly onto 5 ml GSTrap 4B column (GE Healthcare). Column was washed with 50 mM Tris 7.0, 150 mM NaCl, 5% glycerol, 1 mM DTT and eluted in 10 CV linear gradient into 50 mM Tris 8.0, 150 mM NaCl, 20 mM reduced glutathione, 5% glycerol, 1 mM DTT. Fractions identified by SDS-PAGE as containing RIPK1 were pooled and concentrated using 30 kDa MWCO spin concentrators (Amicon Ultra-15, Millipore, Billerica, Mass.) and loaded onto a HiLoad 26/600 Superdex 200 column (GE Healthcare) equilibrated in 25 mM Tris 7.5, 150 mM NaCl, 2 mM TCEP, 5% glycerol.
Protein was aliquoted and stored at −80° C.
Take `Cc1nc(C)c(-c2ccn3nc(N)nc3c2)cc1C(=O)NCC[C@@H](O)c1ccc(Cl)cc1` [Example 178, 5-{2-amino-[1,2,4]triazolo[1,5-a]pyridin-7-yl}-N-[(3R)-3-(4-chlorophenyl)-3-hydroxypropyl]-2,6-dimethylpyridine-3-carboxamide]: the IC50 fell in the range of 20 to 200 nM.
Still for that read-out and setting: then `COc1nc(C)c(-c2ccn3nc(N)nc3c2)cc1C(=O)NCC[C@H](O)c1ccc(Cl)cc1` [Example 193, 5-{2-amino-[1,2,4]triazolo[1,5-a]pyridin-7-yl}-N-[(3S)-3-(4-chlorophenyl)-3-hydroxypropyl]-2-methoxy-6-methylpyridine-3-carboxamide], with 20 to 200 nM; and `COc1ncc(-c2ccn3nc(N)nc3c2)cc1C(=O)NCC[C@H](O)c1ccc(Cl)cc1` [Example 157, 5-{2-amino-[1,2,4]triazolo[1,5-a]pyridin-7-yl}-N-[(3S)-3-(4-chlorophenyl)-3-hydroxypropyl]-2-methoxypyridine-3-carboxamide], with 20 to 200 nM.

The same experiment, now with this note: x marks IC50 class <20 nM; read-out: RIPK1 HTRF binding <20 nM.
For the molecule `Cc1ncc(-c2ccn3nc(N)nc3c2)cc1C(=O)NC(C)c1cc(C(F)(F)F)ccc1F` (single isomer, unassigned) [Example 99-2, 5-{2-amino-[1,2,4]triazolo[1,5-a]pyridin-7-yl}-N-{1-[2-fluoro-5-(trifluoromethyl)phenyl]ethyl}-2-methylpyridine-3-carboxamide], the IC50 is below 20 nM.
“(R)-5-(2-amino-[1,2,4]triazolo[1,5-a]pyridin-7-yl)-N-(1-(2-fluoro-5-(trifluoromethoxy)phenyl)ethyl-2,2,2-d3)-2-methoxynicotinamide [Example 345]”: the IC50 is below 20 nM.
For “5-(2-amino-[1,2,4]triazolo[1,5-a]pyridin-7-yl)-N-(3,5-difluoro-2-isobutoxybenzyl)-2-methoxynicotinamide [Example 341]”, the IC50 is below 20 nM.
Consider `[2H]C([2H])([2H])Oc1nc(C)c(-c2ccn3nc(N)nc3c2)cc1C(=O)NC(C)c1cc(OC(F)(F)F)ccc1F` (single isomer, unassigned) [Example 97-2, 5-{2-amino-[1,2,4]triazolo[1,5-a]pyridin-7-yl}-N-{1-[2-fluoro-5-(trifluoromethoxy)phenyl]ethyl}-2-(deutero)methoxy-6-methylpyridine-3-carboxamide], for which the IC50 is below 20 nM.
Consider “5-(2-amino-[1,2,4]triazolo[1,5-a]pyridin-7-yl)-2-methoxy-N-(2-(pyrrolidine-1-carbonyl)benzyl)nicotinamide [Example 379]”, for which the IC50 is below 20 nM.
In the case of `Cc1ncc(-c2ccn3nc(N)nc3c2)cc1C(=O)NCCC(C)c1ccccc1` (stereo not shown) [Example 82, 5-{2-Amino-[1,2,4]triazolo[1,5-a]pyridin-7-yl}-2-methyl-N-(3-phenylbutyl)pyridine-3-carboxamide], the IC50 is below 20 nM.
Turning to `COc1ncc(-c2ccn3nc(N)nc3c2)cc1C(=O)NC(C)c1cc(OC(F)(F)F)ccc1F` (single isomer, unassigned) [Example 89-2, 5-{2-amino-[1,2,4]triazolo[1,5-a]pyridin-7-yl}-N-{1-[2-fluoro-5-(trifluoromethoxy)phenyl]ethyl}-2-methoxypyridine-3-carboxamide], the IC50 is below 20 nM.
For “(S)-2-(2-amino-[1,2,4]triazolo[1,5-a]pyridin-7-yl)-N-(3-(4-chlorophenyl)-3-hydroxypropyl)-5-methylisonicotinamide [Example 397]”, the IC50 is below 20 nM.
Turning to `Cc1nc(C)c(-c2ccn3nc(N)nc3c2)cc1C(=O)NCC[C@H](O)c1ccc(Cl)cc1` [Example 179, 5-{2-amino-[1,2,4]triazolo[1,5-a]pyridin-7-yl}-N-[(3S)-3-(4-chlorophenyl)-3-hydroxypropyl]-2,6-dimethylpyridine-3-carboxamide], the IC50 is below 20 nM.
Take “(R)-2-(2-amino-[1,2,4]triazolo[1,5-a]pyridin-7-yl)-N-(1-(2-fluoro-5-(trifluoromethyl)phenyl)ethyl)-5-methylisonicotinamide [Example 396]”: the IC50 was below 20 nM.

Staying with this experiment, now noted: x marks IC50 class >200 nM; read-out: RIPK1 HTRF binding >200 nM.
As for `COc1ncc(-c2ccn3nc(N)nc3c2)cc1C(=O)NCCC(O)c1ccc(Cl)cn1` (stereo not shown) [Example 75, 5-{2-Amino-[1,2,4]triazolo[1,5-a]pyridin-7-yl}-N-[3-(5-chloropyridin-2-yl)-3-hydroxypropyl]-2-methoxypyridine-3-carboxamide], the IC50 was above 200 nM.
